Measured values published in PubChem BioAssay (NCI).
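Five concentrations, 48 hours, 96-well plates. GI50: concentration for 50% inhibition of growth. TGI marks complete inhibition of growth.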

What was measured:
Experiment in all cases: DTP human tumour cell line panel, 48 h
[1] = test system: UO-31 renal
[2] = test system: OVCAR-3 ovarian
[3] = test system: TK-10 renal
[4] = test system: A549 NSCLC
[5] = test system: ACHN renal
[6] = test system: SNB-75 CNS
[7] = test system: LOX IMVI melanoma
[8] = test system: HS 578T breast
[9] = test system: SW-620 colon
[10] = test system: MDA-MB-435
[11] = test system: RXF 393 renal
[12] = test system: SF-268 CNS
[13] = test system: IGROV1 ovarian
[14] = test system: U251 CNS
[15] = test system: PC-3 prostate
[16] = test system: RPMI-8226 leukemia
[17] = test system: SN12C renal
[18] = test system: MDA-MB-231 breast
[19] = test system: OVCAR-5 ovarian
[20] = test system: A498 renal
[21] = test system: M14 melanoma
[22] = test system: SNB-19 CNS
[23] = test system: SK-OV-3 ovarian
[24] = test system: HOP-92 NSCLC
[25] = test system: EKVX NSCLC
[26] = test system: CAKI-1 renal
[27] = test system: MCF7 breast
[28] = test system: NCI-H23 lung
[29] = test system: OVCAR-4 ovarian
[30] = test system: SK-MEL-5 melanoma
[31] = test system: HT29 colon
[32] = test system: MALME-3M melanoma
[33] = test system: HCT-116 colon
[34] = test system: NCI-H522 lung
[35] = test system: HCC-2998 colon
[36] = test system: COLO 205 colon
[37] = test system: NCI/ADR-RES ovarian
[38] = test system: SF-295 CNS
[39] = test system: OVCAR-8 ovarian
[40] = test system: HL-60(TB) leukemia
[41] = test system: SF-539 CNS
[42] = test system: NCI-H226 lung
[43] = test system: UACC-62 melanoma
[44] = test system: MOLT-4 leukemia
[45] = test system: T-47D breast
[46] = test system: HOP-62 NSCLC
[47] = test system: BT-549 breast
[48] = test system: DU-145 prostate
[49] = test system: K-562 leukemia
[50] = test system: HCT-15 colon
[51] = test system: UACC-257 melanoma
[52] = test system: NCI-H460 lung
[53] = test system: 786-0 renal
[54] = test system: KM12 colon
[55] = test system: SK-MEL-28 melanoma
[56] = test system: SK-MEL-2 melanoma
[57] = test system: CCRF-CEM leukemia

With `O=C1C=CC2(O)OC/C(=C\c3ccccc3)C(O)=C2C1=O` (centres undefined) the GI50 [1] was 0.722 µM, the TGI [1] was 2.03 µM and the GI50 [2] was 1.14 µM. The TGI [2] was 3.23 µM, the GI50 [3] was 2.99 µM and the TGI [3] was 7.84 µM. For the same molecule, the GI50 [4] was 2.52 µM, the TGI [4] was 6.88 µM and the GI50 [5] was 1.53 µM. The TGI [5] was 2.92 µM, the GI50 [6] was 1.95 µM and the TGI [6] was 9.68 µM. It also gave a GI50 [7] of 1.4 µM, a TGI [7] of 2.76 µM and a GI50 [8] of 0.259 µM. For the same molecule, the TGI [8] was 3 µM, the GI50 [9] was 1.6 µM and the TGI [9] was 3.68 µM. It also gave a GI50 [10] of 1.95 µM, a TGI [10] of 4.74 µM and a GI50 [11] of 1.5 µM. For the same molecule, the TGI [11] was 2.95 µM, the GI50 [12] was 2.1 µM and the TGI [12] was 7.08 µM. The GI50 [13] was 1.83 µM, the TGI [13] was 9.7 µM and the GI50 [14] was 1.39 µM. It also gave a TGI [14] of 3.03 µM, a GI50 [15] of 1.35 µM and a TGI [15] of 4.19 µM. It also gave a GI50 [16] of 0.285 µM, a TGI [16] of 0.838 µM and a GI50 [17] of 1.21 µM. It also gave a TGI [17] of 8.38 µM, a GI50 [18] of 0.648 µM and a TGI [18] of 3.51 µM. It also gave a GI50 [19] of 2.17 µM, a TGI [19] of 4.5 µM and a GI50 [20] of 10.8 µM. The TGI [20] was 22.8 µM, the GI50 [21] was 2.95 µM and the TGI [21] was 11.7 µM. The GI50 [22] was 2.65 µM, the TGI [22] was 9.7 µM and the GI50 [23] was 15.2 µM. For the same molecule, the TGI [23] was > 100 µM, the GI50 [24] was 1.27 µM and the TGI [24] was 3.59 µM. The GI50 [25] was 1.9 µM, the TGI [25] was 5.43 µM and the GI50 [26] was 1.59 µM. It also gave a TGI [26] of 3.2 µM, a GI50 [27] of 1.22 µM and a TGI [27] of 10.2 µM. For the same molecule, the GI50 [28] was 1.65 µM, the TGI [28] was 3.38 µM and the GI50 [29] was 2.37 µM. It also gave a TGI [29] of 8.87 µM, a GI50 [30] of 1.57 µM and a TGI [30] of 2.98 µM. The GI50 [31] was 3.62 µM, the TGI [31] was 11.8 µM and the GI50 [32] was 1.51 µM. The TGI [32] was 5.15 µM, the GI50 [33] was 1.88 µM and the TGI [33] was 4.08 µM. The GI50 [34] was 0.196 µM, the TGI [34] was 0.535 µM and the GI50 [35] was 1.82 µM. The TGI [35] was 3.32 µM, the GI50 [36] was 2.63 µM and the TGI [36] was 6.33 µM. The GI50 [37] was 2.57 µM, the TGI [37] was 12.7 µM and the GI50 [38] was 2.58 µM. For the same molecule, the TGI [38] was 6.32 µM, the GI50 [39] was 2.71 µM and the TGI [39] was 10.3 µM. It also gave a GI50 [40] of 0.517 µM, a TGI [40] of 7.76 µM and a GI50 [41] of 1.24 µM. For the same molecule, the TGI [41] was 2.87 µM, the GI50 [42] was 3.11 µM and the TGI [42] was 31.4 µM. It also gave a GI50 [43] of 1.51 µM, a TGI [43] of 3.76 µM and a GI50 [44] of 0.791 µM. It also gave a TGI [44] of 14.4 µM, a GI50 [45] of 2.47 µM and a TGI [45] of 10.6 µM. For the same molecule, the GI50 [46] was 2.89 µM, the TGI [46] was 9.32 µM and the GI50 [47] was 2.02 µM. It also gave a TGI [47] of 6.98 µM, a GI50 [48] of 2.51 µM and a TGI [48] of 9.36 µM. The GI50 [49] was 0.476 µM, the TGI [49] was > 100 µM and the GI50 [50] was 0.868 µM. For the same molecule, the TGI [50] was 3.38 µM, the GI50 [51] was 1.82 µM and the TGI [51] was 4.5 µM. For the same molecule, the GI50 [52] was 1.98 µM, the TGI [52] was 4.32 µM and the GI50 [53] was 1.3 µM. It also gave a TGI [53] of 3.04 µM, a GI50 [54] of 1.4 µM and a TGI [54] of 3.02 µM. It also gave a GI50 [55] of 2.59 µM, a TGI [55] of 6.41 µM and a GI50 [56] of 2.02 µM. For the same molecule, the TGI [56] was 5.77 µM, the GI50 [57] was 0.534 µM and the TGI [57] was 25.9 µM.
